According to ChEMBL document CHEMBL2046326, “Selective hydroboration of dieneamines. Formation of hydroxyalkylphenothiazines as MDR modulators” (Bioorg Med Chem, 2012):
Calls of active or inactive are those of the source. The rule behind the calls is not given here.

Assays:
Hepatocyte [1] = settings: Rattus norvegicus, 10 to 50 uM
Hepatocyte [2] = experiment: Inhibition of P-glycoprotein in rat primary hepatocytes assessed as increase in intracellular rhodamine 123 accumulation at 100 uM after 3 hrs; format: cell-based
Hepatocyte [3] = experiment: Inhibition of P-glycoprotein in rat primary hepatocytes assessed as increase in intracellular rhodamine 123 accumulation at 100 uM after 3 hrs relative to control; format: cell-based
Hepatocyte [4] = experiment: Inhibition of P-glycoprotein in rat primary hepatocytes assessed as increase in intracellular rhodamine 123 accumulation after 3 hrs; format: cell-based

For `COc1ccc(CCN(C)CCCC(C#N)(c2ccc(OC)c(OC)c2)C(C)C)cc1OC` (stereo not given), which inhibition (Hepatocyte [1]) is on record?
Its inhibition is “Active”.

How did the inhibition (Hepatocyte [2]) turn out when `COc1ccc(-n2nnc(CCCN3c4ccccc4Sc4ccccc43)n2)cc1` was run?
The inhibition was “inactive”.

`COc1ccc(-n2nnc(/C=C\C=C\N3c4ccccc4Sc4ccccc43)n2)cc1` was tested. Which inhibition (Hepatocyte [2]) did it give?
The inhibition was “inactive”.

How did the inhibition (Hepatocyte [3]) turn out when `COc1ccc(-n2nnc(CCCCN3c4ccccc4Sc4ccccc43)n2)cc1` was run?
Its inhibition is 20%.

Which inhibition (Hepatocyte [4]) does the source give for `COc1ccc(-n2nnc(CCC(O)CN3c4ccccc4Sc4ccccc43)n2)cc1` (stereo not given) here?
The inhibition was “Dose-dependent effect”.
